Data set [1] deals with T1, LXRα (Homo sapiens, UniProt Q13133).
T1 sequence (Q13133 209-447 limits assumed): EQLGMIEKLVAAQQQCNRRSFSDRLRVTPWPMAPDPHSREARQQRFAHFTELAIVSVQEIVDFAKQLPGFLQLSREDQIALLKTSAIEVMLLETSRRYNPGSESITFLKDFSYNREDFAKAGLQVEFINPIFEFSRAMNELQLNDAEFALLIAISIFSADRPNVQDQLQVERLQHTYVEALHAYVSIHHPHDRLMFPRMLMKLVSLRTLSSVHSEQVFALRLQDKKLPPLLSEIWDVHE
Briefly: SRC-1 coactivator recruitment to LXRα, coregulator TR-FRET (CRT). It counts as biochemical. More on the design: The CRT selectivity assay incorporates GST-tagged LXR-LBD; purchased Thermo Fisher Scientific PV4657. Conditions: maximal response relative to T0 (100%). A general note: Time-resolved FRET reads energy transfer from a long-lived donor to a nearby acceptor.

For data set [2], the target named is T2, LXRβ (Homo sapiens, UniProt P55055).
T2 sequence (P55055 222-460 limits assumed): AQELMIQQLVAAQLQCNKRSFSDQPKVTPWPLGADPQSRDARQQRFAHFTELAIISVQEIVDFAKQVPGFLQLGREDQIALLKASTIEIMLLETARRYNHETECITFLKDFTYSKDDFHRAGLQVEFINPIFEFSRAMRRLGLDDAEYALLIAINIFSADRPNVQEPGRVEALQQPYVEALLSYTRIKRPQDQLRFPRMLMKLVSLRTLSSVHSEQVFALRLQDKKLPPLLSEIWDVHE
Briefly: SRC-1 coactivator recruitment to LXRβ, coregulator TR-FRET (CRT). In kind it is biochemical. Also on record: The CRT selectivity assay incorporates GST-tagged LXR-LBD; purchased Thermo Fisher Scientific PV4660. The conditions noted are these: for LXR isoform selectivity from SRC-1 CRT: LXRβ versus LXRα.

The next data set deals with HepG2 cells. Put plainly: Cell viability in HepG2 cells under SRE-luc conditions. In kind it is cell-based, human. The conditions noted are these: conditions of SRE-luc measurements. The source says: Figure 5. Lipogenic response of HepG2 cells to treatment with liver X receptor (LXR) ligands. […] See Figure 3—figure supplement 1 for biological replicates. […] See Figure 5—figure supplement 1 for full concentration-response curves. Figure 5—figure supplement 1. Response of HepG2 cells to treatment with liver X receptor (LXR) ligands. (A–B) Lipogenic response of HepG2 cells to treatment with liver X receptor (LXR) ligands showing full concentration-response curves for biphenyl compounds shown in Figure 5E–F. (C) Cell viability in HepG2 cells under identical conditions to those used to obtain sterol response element (SRE)-luc data. [drawing 5]

The target in data set [3] is T2, LXRβ. Put plainly: SMRT2 corepressor binding to LXRβ, CRT. In kind it is biochemical. Also on record: The CRT selectivity assay incorporates GST-tagged LXR-LBD; purchased Thermo Fisher Scientific PV4660. Conditions: ligand 1 µM, interpolated from concentration-response, normalized; heat map Figure 9A; read-out: SMRT2β, relative % activity at 1 μM.
For data set [4], the target named is T1, LXRα. Put plainly: NCOR2 corepressor binding to LXRα, CRT. In kind it is biochemical. More on the design: The CRT selectivity assay incorporates GST-tagged LXR-LBD; purchased Thermo Fisher Scientific PV4657. The conditions noted are these: for activity at 1 µM: ligand 1 µM, interpolated from concentration-response, normalized, heat map Figure 9A, read-out: NCOR2α, relative % activity at 1 μM.

For another data set, the system named is ABCA1. Briefly: ABCA1-luc reporter assay in CCF-STTG1 astrocytoma cells. The conditions noted are these: for ABCA1 induction response/phenotype in CCF cells: normalized to T0. In kind it is cell-based, human. The source says: Astrocytoma CCF-STTG1 cells, stably transfected with an ABCA1-promoter linked to a luciferase response element, provide a model for ABCA1 induction in astrocytes ([Ben Aissa et al., 2021]). […] Apparent inverse agonist activity in cell-based assays can result from ‘true’ inverse agonist recruitment of corepressors or from antagonist activity towards endogenous sterol LXR agonists. Although we use serum-stripped media, antagonism of endogenous LXR agonists cannot be ruled out.
Low passage CCF-STTG1 cells (20,000 cells/well) were seeded in 96-well plates in media containing charcoal-stripped FBS and incubated at 37 °C and 5% CO2 for 24 hr prior to a 24 hr treatment. All compounds were dissolved in DMSO, and final DMSO concentrations never exceeded 1%. After a 24 hr incubation period, add a volume of ONE-GLOEX Reagent that is equal to the volume of culture medium in each well and incubate for 3–5 min on the shaker. The luminescent activity of compounds ([…], 10-fold dilution) was examined using the ONE-GLOEX assay (Promega). […] The assays were performed in duplicates for each concentration, and the EC50 values were determined from non-linear regression analysis of the dose-response curve generated in GraphPad Prism 9.
For orientation: In a reporter assay the amount or activity of a reporter protein is the signal.

Data set [5] deals with LXR. Put plainly: Corepressor (NCOR2, SMRT2) binding to LXR, CRT, statements across isoforms. In kind it is biochemical. The conditions noted are these: monoplex CRT, absence of coactivator.
Data set [6] deals with T2, LXRβ. Briefly: NCOR2 corepressor binding to LXRβ, CRT. In kind it is biochemical. Also on record: The CRT selectivity assay incorporates GST-tagged LXR-LBD; purchased Thermo Fisher Scientific PV4660. Conditions: for activity at 1 µM: ligand 1 µM, interpolated from concentration-response, normalized, heat map Figure 9A, read-out: NCOR2β, relative % activity at 1 μM.
The subject of data set [7] is sterol response element (SRE). Put plainly: SRE-luc reporter assay in HepG2 cells. It counts as cell-based, human. From the text: Our phenotypic high-throughput screen (HTS) approach to identify nonlipogenic ABCA1 Inducers (NLAI) originally used counterscreening with a SREBP1c-luciferase reporter (linked to the SREBF1 gene promoter) in human hepatocarcinoma HepG2 cells ([Ben Aissa et al., 2021]). Unwanted lipogenesis is mediated by LXR agonists via direct transcriptional activation and indirectly by the effects of SREBP1c ([Schultz et al., 2000]; [Brown and Goldstein, 1997]). SREBP1c enhances transcription of genes required for synthesis of fatty acids and TG and as the dominant isoform in liver is associated most closely with lipogenesis and TG elevation ([Brown and Goldstein, 1997]). […] Binding of SREBP1c to the sterol response element (SRE) induces transcription of lipogenic genes associated with elevated TG. To better model the lipogenic axis in hepatocytes, we use HepG2 cells stably transfected with a nanoluciferase reporter downstream of a SRE promoter (SRE-luc), activation of which requires SREBP1c maturation.
HepG2 cells were cotransfected with SRE (LDLR)-NlucP SuperPiggyBac Transposon and a separate Transposase plasmid (System Biosciences). Cells were expanded for multiple passages followed by selection with puromycin (1 μg/ml). Stable cells constitutively express GFP allowed for FACS enrichment and/or cell cloning. Initially, stable pools were compared to low expressing and high expressing enriched pools. The optimal pool was selected based on assay performance (Z’) and was grown and maintained as above, with the addition of 1.0 μg/mL of puromycin biweekly.
Cells were split into flasks containing CS medium (EMEM supplemented with 10% charcoal stripped FBS (Gibco A52567-01)) and 1% P/S and grown at 37 °C /5% CO2 for 48 hr before plating. Cells were plated in 384-well, white clear tissue culture plates (Greiner 781098) and allowed to grow at 37 °C /5% CO2 for 24 hr before medium was aspirated and compound dilutions prepared in CS medium were added. Following a 24 hr incubation, the medium was aspirated, and cells were lysed/luminescence quantified using the Nano-Glo Luciferase Assay System (Promega N1130).

For data set [8], the target named is T1, LXRα. Put plainly: SMRT2 corepressor binding to LXRα, CRT. In kind it is biochemical. More on the design: The CRT selectivity assay incorporates GST-tagged LXR-LBD; purchased Thermo Fisher Scientific PV4657. Conditions: ligand 1 µM, interpolated from concentration-response, normalized; heat map Figure 9A; read-out: SMRT2α, relative % activity at 1 μM.
Data set [9] has as its system LXR. Briefly: Categorization of ligands by CRT/pCRT signature. Conditions: response at 1 µM ligand compared with theoretical signatures. It counts as biochemical. From the text:
With the knowledge that, in pCRT, corepressors bind to the apo-receptor; whereas coactivator binding requires a ligand-induced conformational change, we can categorize all ligands using their CRT profiles. Ligands induce three LXR conformational ensembles with CoR (destabilizing D, stabilizing S, neutral N) and only two conformations with CoA (stabilizing S, neutral N) (Figure 9 (Table 1)). In categorizing ligands based upon these CRT characteristics, labels are needed.
The category for each ligand is not always identical for LXRα vs. LXRβ. Similarly, the phenotype associated with each classification is isoform dependent. Recruitment of CoA to LXRβ by FA, WA, and PA will activate transcription; whereas, lack of recruitment by SA, HA, and RA will antagonize transcription (Figure 9 (Table 1)). Stabilization of CoA and/or destabilization of CoR bound to LXRα is a derepression mechanism leading to activation/transcription for FA, WA, and RA; whereas partial activation is expected for PA.
To determine which LXR ligands fit with these theoretical CRT signatures, concentration-response curves were interpolated to measure normalized response at 1 µM ligand concentration and plotted as a heat map (Figure 9A).

In another data set the test system is Hamsters. Also on record: method as in Groot et al., 2005. The conditions noted are these: ref Groot et al., 2005; cited from earlier work.
In a further data set the test system is cynomolgus monkeys. Also on record: method as in Groot et al., 2005. Conditions: ref Groot et al., 2005; cited from earlier work.

Consider five compounds from paper PMC13286573, “Exploration of precision coregulator TR-FRET identifies diverse signatures for LXR ligands relevant to discovery of nonlipogenic ABCA1 inducers” (eLife, 2026).

Entries after “also recorded” stand apart in the source; their conditions may differ.

Take `CC(C)C(O)CC[C@@H](C)[C@H]1CC[C@H]2[C@@H]3CC=C4C[C@@H](O)CC[C@]4(C)[C@H]3CC[C@]12C` (stereo partly shown) [24HC, 24-hydroxycholesterol]: at LXRα [1], the “Efficacy profile for SRC-1 recruitment to LXRα” value is on record as “partial agonist”. The “LXR isoform selectivity from SRC-1 CRT” value on LXRβ [2] is recorded as “nonselective”. Moreover, the “Efficacy profile for SRC-1 recruitment to LXRβ” value on LXRβ [2] (maximal response relative to T0 (100%)) is reported as “partial agonist”. In the data set on HepG2 cells, the HepG2 cell viability/cytotoxicity entry is given as “cytotoxic at higher concentrations”.

As to `CCOC(=O)Cn1nc(C(F)(F)F)cc1-c1ccc(-c2cccc(S(C)(=O)=O)c2)cc1` [ALX101], the activity at 1 µM came to 91.1% on LXRβ [3], 100% on LXRα [4], 105% on LXRβ [6] and 87.3% at LXRα [8]. Further, in the data set with ABCA1, the “ABCA1 induction response/phenotype in CCF cells” value is given as “full agonist towards ABCA1 induction”. For the same compound, in the data set with LXR [5], the “Corepressor (NCOR2, SMRT2) displacement or stabilization, across LXR isoforms” value (from here on “Corepressor”) is reported as “less effective or ineffective in displacement of corepressors from LXRα”. Besides, in data set [7], the “SRE activation response/phenotype in HepG2” value is recorded as “partial agonist of SRE activation”.

Turning to `Cc1cc(C)c(S(=O)(=O)N(Cc2ccc(-c3cccc(S(C)(=O)=O)c3)cc2)Cc2ccccc2F)c(C)c1` [BE1218], the activity at 1 µM on LXRβ [3] worked out at 81.6%; at LXRα [4], 100%; at LXRβ [6], 105%; at LXRα [8] it was 91.8%. For the same compound, in the data set with ABCA1 (CCF ABCA1-luc versus HepG2 SRE-luc), the “Selectivity for ABCA1 induction versus SRE activation (potency correlation outliers)” value is “selectivity for ABCA1 induction”. In the data set on ABCA1, the “ABCA1 induction response/phenotype in CCF cells” value is “partial agonist phenotype in both cell-based assays; also recorded: partial agonist response”. For the same compound, the “Corepressor” value in the data set on LXR [5] is “ineffective in corepressor displacement from LXRα”. In addition, on LXRβ [2], the “LXR isoform selectivity from SRC-1 CRT” value is reported as “most selective LXRβ agonists”. The “SRE activation response/phenotype in HepG2” value in data set [7] is recorded as “partial agonist phenotype in both cell-based assays”.

Regarding `COc1ccc(NC2=C(c3ccccc3)C(=O)N(Cc3ccccc3)C2=O)cc1` [GSK3987], the activity at 1 µM at LXRβ [3] was found to be 84%; at LXRα [4], 97.7%; at LXRβ [6], 97.4%; on LXRα [8], 69.9%. Besides, in the data set on LXR [5], the “Corepressor” value was “strong agonist responses”. The “LXR isoform selectivity from SRC-1 CRT” value at LXRβ [2] is given as “weakly selective for LXRβ”. Moreover, the CRT/pCRT signature category result in the data set with LXR [9] is “FA (full agonist (FA))”.

As for `C[C@H](CCOc1cccc(CC(=O)O)c1)N(Cc1cccc(C(F)(F)F)c1Cl)CC(c1ccccc1)c1ccccc1` [RGX-104], the activity at 1 µM on LXRβ [3] stood at 82%; on LXRα [4], 99.8%; at LXRβ [6], 103%; on LXRα [8] it was 93.4%. For the same compound, at LXRα [4] (monoplex CRT, absence of SRC1), the “Effect on NCOR2 binding to LXRα” value is “displacement of NCOR2 from both LXR isoforms”. Also, the “Liver TG” value with Hamsters is “significantly increased liver TG”. In the data set on Hamsters, the “Plasma TG, LDL-C and VLDL-C” value is “dose-dependent increase”. The “Corepressor” value in the data set on LXR [5] is “strong agonist responses”. Moreover, the “Plasma LDL, HDL and TG” value in the data set on cynomolgus monkeys is “robust time-dependent increase in TG and LDL”. Besides, the “Effect on NCOR2 binding to LXRβ” value at LXRβ [6] (monoplex CRT, absence of SRC1) is recorded as “displacement of NCOR2 from both LXR isoforms”.
